In US9452981B2, “Pyroglutamic acid esters with improved biodegradability” (Clariant Produkte (Deutschland) GmbH, priority 2005, dated 2016):

Assay: Kinetic gas hydrate inhibition test in stirred steel autoclave
Settings: 5000 ppm based on the water phase; for Tind (time from attainment of 4° C. until the first gas absorption): distilled water and gas 20:80, 50 bar natural gas; for Tagg (time until the torque rises): distilled water and gas 20:80, 50 bar natural gas, 4° C.
Method: To investigate the inhibiting action of the polyesters, a stirred steel autoclave with temperature control, pressure and torque sensor with capacity 450 ml was used. For investigations of kinetic inhibition, the autoclave was filled with distilled water and gas in a volume ratio of 20:80; for investigations of agglomerate inhibition, condensate was additionally added. Finally, 50 bar of natural gas were injected. […] At first, a pressure decrease corresponding to the thermal compression of the gas is observed. When the formation of gas hydrate nuclei occurs during the cooling time, the pressure measured falls, and a rise in the torque measured and a slight increase, in the temperature are observed. Without inhibitors, further growth and increasing agglomeration of the hydrate nuclei lead rapidly to a further rise in the torque. When the mixture is heated, the gas hydrates decompose, so that the starting state of the experimental series is attained. The measure used for the inhibiting action of the polymer is the time from the attainment of the minimum temperature of 4° C. until the first gas absorption (Tind) or the time until the torque rises (Tagg). Long induction times or agglomeration times indicate an effect as a kinetic inhibitor. The torque measured in the autoclave serves, in contrast, as a parameter for the agglomeration of the hydrate crystals. […] Composition of the natural gas used: methane 84.8%, ethane 9.2%, propane 2.6%, butane 0.9%, carbon dioxide 1.6%, nitrogen 0.9%. The comparative substance used was a commercially available gas hydrate inhibitor based on polyvinylpyrrolidone. The dosage in all tests was 5000 ppm based on the water phase.

SMILES | Tind (time from attainment of 4° C. until the first gas absorption) | Tagg (time until the torque rises)
O=C1CC[C@@H](C(=O)OCCOCCOCCOC(=O)[C@@H]2CCC(=O)N2)N1 [Example 1, triethylene glycol di(pyroglutamate)] | 6.9 h | 7.2 h
O=C1CC[C@@H](C(=O)OCCOCCOCCOC(=O)[C@@H]2CCC(=O)N2)N1 [Example 2, triethylene glycol di(pyroglutamate)] | 7.3 h | 7.4 h
